Test results as given in patent publication US10874108B2, “Anti-microbial compositions” (5D HEALTH PROTECTION GROUP LTD, priority 2016, dated 2020).

Key:
cells = assay: Direct cytotoxicity, Neutral Red Uptake assay
[1] = test system: S. aureus MRSA BAA-43 biofilm; assay: MBEC model (ASTM E2799), liquid formulas; type: cell-based; conditions: treated 24 hours
Experimental: (§1) The MBEC model (ASTM E2799) was used to assess the anti-biofilm efficacy of the liquid formulas. Biofilms were grown on polystyrene pegs in the MBEC model for either 24 or 48 hours before treatment. Using the liquid form of the EDTA complexes 24- and 48-hour biofilms were tested (Table 20).
(§2) 24- and 48-hour biofilms were formed using MBEC plate method and treated for 24 hours. Technical replicates n=3. Log reduction (LR) values show±standard error (SE) of LR value.

[2] = test system: S. aureus ATCC 29213 biofilm; assay: MBEC model (ASTM E2799), liquid formulas; type: cell-based; conditions: treated 24 hours
Experimental: as §1, §2

[3] = test system: S. epidermidis ATCC 35984 biofilm; assay: MBEC model (ASTM E2799), liquid formulas; type: cell-based; conditions: treated 24 hours
Experimental: as §1, §2

[4] = test system: E. faecalis ATCC 29212 biofilm; assay: MBEC model (ASTM E2799), liquid formulas; type: cell-based; conditions: treated 24 hours
Experimental: as §1, §2

[5] = test system: P. aeruginosa NCTC 10662 biofilm; assay: MBEC model (ASTM E2799), liquid formulas; type: cell-based; conditions: treated 24 hours
Experimental: as §1, §2

`CCCCCCCCCCCCOS(=O)(=O)[O-].[Na+]` [SDS, sodium dodecyl sulphate, reference compound] was tested, and the Interpretation (cells; 0.05 mg/ml) was “Cytotoxic (if the percentage viability is less than 70% of the untreated control, then the substance is considered cytotoxic)”, the “Percentage of Control/Percentage Viability (%)” value (cells; 0.05 mg/ml) was 6.57 ± 0% and the Interpretation (cells; 0.1 mg/ml) was “Cytotoxic (if the percentage viability is less than 70% of the untreated control, then the substance is considered cytotoxic)”. For the same compound, the “Percentage of Control/Percentage Viability (%)” value (cells; 0.1 mg/ml) was 6.57 ± 0%, the Interpretation (cells; 0.15 mg/ml) was “Cytotoxic (if the percentage viability is less than 70% of the untreated control, then the substance is considered cytotoxic)” and the “Percentage of Control/Percentage Viability (%)” value (cells; 0.15 mg/ml) was 6.57 ± 0%. For the same compound, the Interpretation (cells; 0.2 mg/ml) was “Cytotoxic (if the percentage viability is less than 70% of the untreated control, then the substance is considered cytotoxic)” and the “Percentage of Control/Percentage Viability (%)” value (cells; 0.2 mg/ml) was 6.57 ± 0%.
Silver was tested, and the Kill % ([1]; 50 ppm, 24-Hour Biofilm) was 100%, the LR ([1]; 50 ppm, 24-Hour Biofilm) was 5.40 and the Kill % ([1]; 50 ppm, 48-Hour Biofilm) was 100%. For the same compound, the LR ([1]; 50 ppm, 48-Hour Biofilm) was 6.43, the Kill % ([1]; 100 ppm, 24-Hour Biofilm) was 100% and the LR ([1]; 100 ppm, 24-Hour Biofilm) was 5.40. It also gave a Kill % ([1]; 100 ppm, 48-Hour Biofilm) of 100%, an LR ([1]; 100 ppm, 48-Hour Biofilm) of 6.43 and a Kill % ([2]; 50 ppm, 24-Hour Biofilm) of 100%. The LR ([2]; 50 ppm, 24-Hour Biofilm) was 6.44, the Kill % ([2]; 50 ppm, 48-Hour Biofilm) was 100% and the LR ([2]; 50 ppm, 48-Hour Biofilm) was 6.50. For the same compound, the Kill % ([2]; 100 ppm, 24-Hour Biofilm) was 100%, the LR ([2]; 100 ppm, 24-Hour Biofilm) was 6.44 and the Kill % ([2]; 100 ppm, 48-Hour Biofilm) was 100%. It also gave an LR ([2]; 100 ppm, 48-Hour Biofilm) of 6.50, a Kill % ([3]; 50 ppm, 24-Hour Biofilm) of 100% and an LR ([3]; 50 ppm, 24-Hour Biofilm) of 6.09. For the same compound, the Kill % ([3]; 50 ppm, 48-Hour Biofilm) was 100%, the LR ([3]; 50 ppm, 48-Hour Biofilm) was 6.41 and the Kill % ([3]; 100 ppm, 24-Hour Biofilm) was 100%. For the same compound, the LR ([3]; 100 ppm, 24-Hour Biofilm) was 6.09, the Kill % ([3]; 100 ppm, 48-Hour Biofilm) was 100% and the LR ([3]; 100 ppm, 48-Hour Biofilm) was 6.41. It also gave a Kill % ([4]; 50 ppm, 24-Hour Biofilm) of 100%, an LR ([4]; 50 ppm, 24-Hour Biofilm) of 6.35 and a Kill % ([4]; 50 ppm, 48-Hour Biofilm) of 100%. The LR ([4]; 50 ppm, 48-Hour Biofilm) was 6.40, the Kill % ([4]; 100 ppm, 24-Hour Biofilm) was 100% and the LR ([4]; 100 ppm, 24-Hour Biofilm) was 6.35. For the same compound, the Kill % ([4]; 100 ppm, 48-Hour Biofilm) was 100%, the LR ([4]; 100 ppm, 48-Hour Biofilm) was 6.40 and the Kill % ([5]; 50 ppm, 24-Hour Biofilm) was 100%. For the same compound, the LR ([5]; 50 ppm, 24-Hour Biofilm) was 7.44, the Kill % ([5]; 50 ppm, 48-Hour Biofilm) was 100% and the LR ([5]; 50 ppm, 48-Hour Biofilm) was 8.44. It also gave a Kill % ([5]; 100 ppm, 24-Hour Biofilm) of 100%, an LR ([5]; 100 ppm, 24-Hour Biofilm) of 7.44 and a Kill % ([5]; 100 ppm, 48-Hour Biofilm) of 100%. For the same compound, the LR ([5]; 100 ppm, 48-Hour Biofilm) was 8.44.
